Results as given in patent US9956187B2 (priority 2014, dated 2018).
Structures can show the parent of a compound that is named as a salt.

Assays:
[1] = test system: morphine dependent rats; test: Morphine withdrawal syndrome scoring
Protocol: (1) The same volumes of normal saline (NS) were received subcutaneously in the naïve group. All other interventional drugs are administered by intraperitoneal injection.

[2] = test system: chronic constriction injury (CCI) rats; test: Tactile allodynia, paw withdrawal threshold in CCI model; assay type: in vivo, rat; conditions: 3 mg/kg IP daily, days 1-10 after CCI, vs NS group, P<0.05
Protocol: CCI procedures on the sciatic nerve of male SD rats were performed as previously described. Briefly, after rats were anesthetized by i.p. injection of sodium pentobarbital (40 mg/kg), the right sciatic nerve of the mid-thigh level was exposed. Chromic gut 4-0 was loosely tied around the nerve for 4 ligatures with about 1 mm between knots. The ligation was performed to just barely reduce the diameter of sciatic nerve. […] In the sham group, the sciatic nerve was exposed without ligation. The incisions of rats were closed in layers. After recovery from anesthesia, rats were housed individually in the clear plastic cages with soft bedding covered with 3-6 cm of sawdust.
Same volume of normal saline (2 ml) was injected in the other two groups at the same time.
The paw withdrawal threshold (PWT) was used to evaluate mechanical allodynia for nociceptive response with Von Frey filaments. The rats were placed in transparent plexiglass cage with a wire mesh floor. After acclimating to their environments for 30 minutes, each filament was applied perpendicularly to the plantar surface of the right hind paw. The end point was determined as paw withdrawal accompanied by biting, head turning and/or licking. The force (in gram, g) needed for this reaction was recorded. […]

In the case of `C[C@@]12CCCCC[C@@H](Cc3ccc(O)cc31)[C@@H]2N` [Dezocine, (−)-13β-amino-5,6,7,8,9,10,11,12-octahydro-5α-methyl-5,11-methanobenxocyclodecen-31-ol, hydrobromide], the “total score of morphine withdrawal symptoms” value ([1]; days 1-7, vs DMSO group, n=12, P<0.01 (FIG. 18)) is reported as “alleviated the morphine withdrawal syndrome”, the “total score of morphine withdrawal symptoms” value ([1]; dezocine 5 mg/kg IP, days 1-7, vs NS group, P<0.01) is reported as “decreased significantly” and the “paw withdrawal threshold (PWT)” value [2] is reported as “increased markedly”.
